The results in this text go back to US8148410B2, “Thiophene derivatives as agonists of S1P1/EDG1” (Actelion Pharmaceuticals Ltd., priority 2007, dated 2012).

The term pEC50 denotes the EC50 on a negative log10 scale, so that one unit is a factor of ten.

Each structure is given as a SMILES string. pEC50: −log10 of the molar value.

Chain of recombinant human S1P1 receptor (P21453 whole entry): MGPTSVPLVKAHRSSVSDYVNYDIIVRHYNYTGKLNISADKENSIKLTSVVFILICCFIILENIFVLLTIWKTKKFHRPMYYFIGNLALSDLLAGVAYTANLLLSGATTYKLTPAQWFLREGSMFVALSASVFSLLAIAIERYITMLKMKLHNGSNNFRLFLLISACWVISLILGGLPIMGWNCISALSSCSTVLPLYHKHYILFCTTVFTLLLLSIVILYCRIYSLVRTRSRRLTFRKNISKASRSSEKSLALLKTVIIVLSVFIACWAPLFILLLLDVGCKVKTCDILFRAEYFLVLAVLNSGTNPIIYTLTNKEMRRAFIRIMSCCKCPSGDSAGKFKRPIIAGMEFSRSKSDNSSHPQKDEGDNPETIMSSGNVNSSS

For the first assay, the system named is circulating lymphocytes. Put plainly: Assessment of in vivo efficacy: circulating lymphocytes after oral administration. Also noted: species or system normotensive male Wistar rats. To be noted: 3 h after oral administration of 10 mg/kg, compared to animals treated with vehicle only; mean ± SEM.
Method: Assessment of In Vivo Efficacy
The efficacy of the compounds of Formula (I) is assessed by measuring the circulating lymphocytes after oral administration of 3 to 30 mg/kg of a compound of Formula (I) to normotensive male Wistar rats. The animals are housed in climate-controlled conditions with a 12 h-light/dark cycle, and have free access to normal rat chow and drinking water. Blood is collected before and 3, 6 and 24 h after drug administration. Full blood is subjected to hematology using Advia Hematology system (Bayer Diagnostics, Zürich, Switzerland).
All data are presented as mean±SEM. Statistical analyses are performed by analysis of variance (ANOVA) using Statistica (StatSoft) and the Student-Newman-Keuls procedure for multiple comparisons. The null hypothesis is rejected when p<0.05.
As to `CCCN(C)Cc1sc(-c2nc(-c3cc(C)c(OCC(O)CNC(=O)CO)c(C)c3)no2)cc1C` (racemic) [Example 28], the Lymphocyte counts is given as −68 ± 3%.

With `CCc1cc(-c2noc(-c3cc(C)c(CN(CC)CC)s3)n2)cc(C)c1OC[C@@H](O)CNC(=O)CO` [Example 56], the Lymphocyte counts is reported as −68 ± 1%.

Another assay deals with recombinant human S1P1 receptor (Homo sapiens, UniProt P21453). Put plainly: GTPγS assay to determine EC50 values. It is filed as biochemical. As to conditions: agonist concentration inducing 50% of maximal specific 35S-GTPγS binding; membranes of CHO cells expressing recombinant human S1P1. The protocol:
GTPγS Assay to Determine EC50 Values
GTPγS binding assays are performed in 96 well microtiter plates (Nunc, 442587) in a final volume of 200 μl, using membrane preparations of CHO cells expressing recombinant human S1P1 receptor. Assay conditions are 20 mM Hepes (Fluka, 54461), 100 mM NaCl (Fluka, 71378), 5 mM MgCl2 (Fluka, 63064), 0.1% BSA (Calbiochem, 126609), 1 μM GDP (Sigma, G-7127), 2.5% DMSO (Fluka, 41644), 50 pM ^35S-GTPγS (Amersham Biosciences, SJ1320). The pH is 7.4. Test compounds are dissolved and diluted in 100% DMSO and pre-incubated at room temperature for 30 min in 150 μl of the above assay buffer, in the absence of ^35S-GTPγS. After addition of 50 μl of ^35S-GTPγS, the assay is incubated for 1 h at rt. The assay is terminated by transfer of the reaction mixture to a Multiscreen plate (Millipore, MAHFC1H60) using a cell harvester from Packard Biosciences, and the plates are washed with ice-cold 10 mM Na2HPO4/NaH2PO4 (70%/30%), dried, sealed at the bottom and, after addition of 25 μl MicroScint20 (Packard Biosciences, order #6013621), sealed on the top. Membrane-bound ^35S-GTPγS is measured with a TopCount from Packard Biosciences.
Specific binding is determined by subtracting non-specific binding from maximal binding. Maximal binding is the amount of cpm bound to the Multiscreen plate in the presence of 10 μM of S1P. Non-specific binding is the amount of binding in the absence of an agonist in the assay.
A general note: GTPγS resists hydrolysis and so accumulates on activated G proteins.
For `CNCc1sc(-c2nc(-c3cc(C)c(OCC(O)CNC(=O)CO)c(C)c3)no2)cc1C` (racemic) [Example 21], the negative-log EC50 (pEC50) is 8.42.

Regarding `Cc1cc(-c2nc(-c3cc(C)c(OCC(O)CNC(=O)CO)c(C)c3)no2)sc1CNC(C)C` (racemic) [Example 24], the pEC50 is 7.96.

With `CCCN(C)Cc1sc(-c2nc(-c3cc(C)c(OCC(O)CNC(=O)CO)c(C)c3)no2)cc1C` (racemic) [Example 28], the pEC50 is 9.70.

For the compound `Cc1cc(-c2nc(-c3cc(C)c(OCC(O)CNC(=O)CO)c(C)c3)no2)sc1CN(C)CCO` (racemic) [Example 30], the pEC50 was 7.99.

With `CCN(CCO)Cc1sc(-c2nc(-c3cc(C)c(OCC(O)CNC(=O)CO)c(C)c3)no2)cc1C` (racemic) [Example 31], the pEC50 is 8.09.

On to `Cc1cc(-c2nc(-c3cc(C)c(OCC(O)CNC(=O)CO)c(C)c3)no2)sc1CN1CCCC1` (racemic) [Example 32], for which the negative logarithm of the EC50 (pEC50) is 7.95.

Regarding `Cc1cc(-c2nc(-c3cc(C)c(OCC(O)CNC(=O)CO)c(C)c3)no2)sc1CN1CCCCC1` (racemic) [Example 33], the pEC50 was 8.01.

As for `CCN(CC)Cc1sc(-c2nc(-c3cc(C)c(CCC(=O)O)c(C)c3)no2)cc1C` [Example 44], the pEC50 is 7.92.

Take `CCc1cc(-c2noc(-c3cc(C)c(CN(C)CC)s3)n2)cc(C)c1OC[C@@H](O)CNC(=O)CO` [Example 52]: the pEC50 is 8.66.

For the compound `CCCCN(C)Cc1sc(-c2nc(-c3cc(C)c(OC[C@@H](O)CNC(=O)CO)c(CC)c3)no2)cc1C` [Example 54], the pEC50 was 8.70.

For `CCc1cc(-c2noc(-c3cc(C)c(CN(CC)CC)s3)n2)cc(C)c1OC[C@@H](O)CNC(=O)CO` [Example 56], the pEC50 was 8.60.

As for `CCCN(CC)Cc1sc(-c2nc(-c3cc(C)c(OC[C@@H](O)CNC(=O)CO)c(CC)c3)no2)cc1C` [Example 57], the pEC50 is 8.55.

With `CCc1cc(-c2noc(-c3cc(C)c(CN(CC)C(C)C)s3)n2)cc(C)c1OC[C@@H](O)CNC(=O)CO` [Example 58], the pEC50 was 8.48.

In the case of `CCCCN(CC)Cc1sc(-c2nc(-c3cc(C)c(OC[C@@H](O)CNC(=O)CO)c(CC)c3)no2)cc1C` [Example 59], the pEC50 is 8.15.

For the compound `CCc1cc(-c2nc(-c3cc(C)c(OC[C@H](O)CO)c(CC)c3)no2)sc1CN(C)C` [Example 81], the pEC50 is 8.59.

As to `CCCN(C)Cc1sc(-c2nc(-c3cc(C)c(OC[C@@H](O)CNC(=O)CO)c(CC)c3)no2)cc1CC` [Example 84], the negative logarithm of the EC50 (pEC50) was 9.10.

For `CCCN(C)Cc1sc(-c2nc(-c3cc(C)c(CCC(=O)O)c(CC)c3)no2)cc1CC` [Example 86], the pEC50 is 8.04.

Consider `Cc1cc(-c2nc(-c3cc(C)c(OC[C@@H](O)CNC(=O)CO)c(C)c3)no2)sc1CN(C)C` [Example 87, N-((2S)-3-{4-[5-(5-Dimethylaminomethyl-4-methyl-thiophen-2-yl)-[1,2,4]oxadiazol-3-yl]-2,6-dimethyl-phenoxy}-2-hydroxy-propyl)-2-hydroxy-acetamide], for which the pEC50 was 9.22.

As to `CCN(Cc1sc(-c2nc(-c3cc(C)c(OC[C@@H](O)CNC(=O)CO)c(C)c3)no2)cc1C)C(C)C` [Example 92, N-{(2S)-3-[4-(5-{5-[(Ethyl-isopropyl-amino)-methyl]-4-methyl-thiophen-2-yl}-[1,2,4]oxadiazol-3-yl)-2,6-dimethyl-phenoxy]-2-hydroxy-propyl}-2-hydroxy-acetamide], the pEC50 was 9.30.

Consider `CCCN(C)Cc1sc(-c2nc(-c3cc(C)c(CCC(=O)NCC(=O)OC)c(CC)c3)no2)cc1C` [Example 98], for which the pEC50 is 7.76.

As to `CCc1cc(-c2noc(-c3cc(C)c(CN(CC)CC)s3)n2)cc(C)c1CCC(=O)NCC(=O)O` [Example 106], the pEC50 was 8.07.

As for `CCCN(C)Cc1sc(-c2nc(-c3cc(C)c(CCC(=O)NCCC(=O)O)c(CC)c3)no2)cc1C` [Example 115], the pEC50 was 7.98.

Take `CCCN(CC)Cc1sc(-c2nc(-c3cc(C)c(CCC(=O)NCCC(=O)O)c(CC)c3)no2)cc1C` [Example 119]: the pEC50 is 8.68.

Take `CCc1cc(-c2noc(-c3cc(C)c(CN(CC)CC)s3)n2)cc(C)c1CCC(=O)NCCO` [Example 136]: the pEC50 was 7.73.

On to `CCc1cc(-c2nc(-c3cc(C)c(CN(CC)CC)s3)no2)cc(C)c1OC[C@@H](O)CNC(=O)CO` [Example 149], for which the pEC50 was 8.80.

`CCc1cc(-c2nnc(-c3cc(C)c(CN(C)C)s3)o2)cc(C)c1OC[C@@H](O)CNC(=O)CO` [Example 150, N-((2S)-3-{4-[5-(5-Dimethylaminomethyl-4-methyl-thiophen-2-yl)-[1,3,4]oxadiazol-2-yl]-2-ethyl-6-methyl-phenoxy}-2-hydroxy-propyl)-2-hydroxy-acetamide]: the pEC50 is 8.27.

Turning to `CCN(CC)Cc1sc(-c2nc(-c3cc(C)c(N)c(Cl)c3)no2)cc1C` [Example 187, 2-Chloro-4-[5-(5-diethylaminomethyl-4-methyl-thiophen-2-yl)-[1,2,4]oxadiazol-3-yl]-6-methyl-phenylamine], the pEC50 was 7.66.

In the case of `CCN(CC)Cc1sc(-c2nc(-c3cc(C)c(OC[C@@H](O)CNC(=O)CO)c(OC)c3)no2)cc1C` [Example 194, N-((2S)-3-{4-[5-(5-Diethylaminomethyl-4-methyl-thiophen-2-yl)-[1,2,4]oxadiazol-3-yl]-2-methoxy-6-methyl-phenoxy}-2-hydroxy-propyl)-2-hydroxy-acetamide], the pEC50 was 8.60.

For the compound `CCN(CC)Cc1sc(-c2nc(-c3cc(C)c(OC[C@@H](O)CNC(=O)CO)c(Cl)c3)no2)cc1C` [Example 195, N-((2S)-3-{4-[5-(5-Diethylaminomethyl-4-methyl-thiophen-2-yl)-[1,2,4]oxadiazol-3-yl]-2-chloro-6-methyl-phenoxy}-2-hydroxy-propyl)-2-hydroxy-acetamide], the negative logarithm of the EC50 (pEC50) was 9.70.

Turning to `CCN(CC)Cc1sc(-c2nc(-c3ccc(OCC(O)CNC(=O)CO)cc3C)no2)cc1C` (stereo not shown) [Example 196, N-(3-{4-[5-(5-Diethylaminomethyl-4-methyl-thiophen-2-yl)-[1,2,4]oxadiazol-3-yl]-3-methyl-phenoxy}-2-hydroxy-propyl)-2-hydroxy-acetamide], the pEC50 is 7.89.

With `CCN(CC)Cc1sc(-c2nc(-c3cc(C)c(OC[C@@H](O)CO)c(Cl)c3)no2)cc1C` [Example 198, (2S)-3-{2-Chloro-4-[5-(5-diethylaminomethyl-4-methyl-thiophen-2-yl)-[1,2,4]oxadiazol-3-yl]-6-methyl-phenoxy}-propane-1,2-diol], the pEC50 was 8.68.

Take `CCc1cc(-c2noc(-c3cc(C)c(CN(CC)CC)s3)n2)cc(C)c1OC[C@@H](O)CN1CCC(C(=O)O)C1` (stereo partly drawn) [Example 205, 1-((2S)-3-{4-[5-(5-Diethylaminomethyl-4-methyl-thiophen-2-yl)-[1,2,4]oxadiazol-3-yl]-2-ethyl-6-methyl-phenoxy}-2-hydroxy-propyl)-pyrrolidine-3-carboxylic acid]: the pEC50 is 7.74.

Take `CCc1cc(-c2noc(-c3cc(C)c(CN(CC)CC)s3)n2)cc(C)c1OC[C@@H](O)CNCCO` [Example 210]: the pEC50 is 8.02.

On to `CCc1cc(-c2noc(-c3cc(C)c(CN(CC)CC)s3)n2)cc(C)c1OC[C@@H](O)CNC(CO)CO` [Example 214], for which the negative logarithm of the EC50 (pEC50) is 8.77.

`CCc1cc(-c2noc(-c3cc(C)c(CN(CC)CC)s3)n2)cc(C)c1OC[C@@H](O)CNCC(=O)O` [Example 220]: the negative-log EC50 (pEC50) was 8.47.

Consider `CCc1cc(-c2noc(-c3cc(C)c(CN(CC)CC)s3)n2)cc(C)c1OC[C@@H](O)CNC(=O)CCO` [Example 223], for which the pEC50 was 8.21.

Consider `CCc1cc(-c2noc(-c3cc(C)c(CN(CC)CC)s3)n2)cc(C)c1OC[C@@H](O)CNC(=O)CN` [Example 225], for which the pEC50 was 8.96.

`CCc1cc(-c2noc(-c3cc(C)c(CN(CC)CC)s3)n2)cc(C)c1OC[C@@H](O)CNC(=O)CNC` [Example 226]: the negative logarithm of the EC50 (pEC50) was 8.46.
